Test system: MV-4-11 cells
Experiment: Gene expression microarray analysis (Affymetrix PrimeView) and GSEA
Format: cell-based, human
Design: RFU PODN (11730768_x_at) / Fold change /veh PODN (11730768_x_at) / RFU LINC00158 (11744669_a_at) / Fold change /veh LINC00158 (11744669_a_at) / RFU DUSP10 (11751237_a_at) / Fold change /veh DUSP10 (11751237_a_at) / RFU ID3 (11757404_x_at) / Fold change /veh ID3 (11757404_x_at) / RFU PLEKHG5 (11737974_s_at) / Fold change /veh PLEKHG5 (11737974_s_at) / RFU LRRC4B (11730491_at) / Fold change /veh LRRC4B (11730491_at) / RFU GIMAP4 (11747438_a_at) / Fold change /veh GIMAP4 (11747438_a_at) / RFU KRT8 (11758183_x_at) / Fold change /veh KRT8 (11758183_x_at) / RFU CNN1 (11734310_a_at) / Fold change /veh CNN1 (11734310_a_at) / RFU VPS37D (11726825_at) / Fold change /veh VPS37D (11726825_at) / RFU C10orf10 (11716522_x_at) / Fold change /veh C10orf10 (11716522_x_at) / RFU KIR2DL2 /// KIR2DL4 /// KIR2DL5A /// KIR2DL5B /// KIR2DS1 /// KIR2DS2 /// KIR2DS3 /// KIR2DS4 /// KIR3DL3 /// KIR3DL3 /// KIR3DS1 (11738374_at) / Fold change /veh KIR2DL2 /// KIR2DL4 /// KIR2DL5A /// KIR2DL5B /// KIR2DS1 /// KIR2DS2 /// KIR2DS3 /// KIR2DS4 /// KIR3DL3 /// KIR3DL3 /// KIR3DS1 (11738374_at) / RFU C1QL1 (11718748_at) / Fold change /veh C1QL1 (11718748_at) / RFU TMPRSS4 (11747572_a_at) / Fold change /veh TMPRSS4 (11747572_a_at) / RFU HAMP (11756126_x_at) / Fold change /veh HAMP (11756126_x_at) / RFU RNFT2 (11725882_a_at) / Fold change /veh RNFT2 (11725882_a_at) / RFU NR4A2 (11747474_a_at) / Fold change /veh NR4A2 (11747474_a_at) / RFU ABCC12 (11746883_a_at) / Fold change /veh ABCC12 (11746883_a_at) / RFU TMEM136 (11760407_x_at) / Fold change /veh TMEM136 (11760407_x_at) / RFU CLDN22 /// WWC2 (11732394_at) / Fold change /veh CLDN22 /// WWC2 (11732394_at) / RFU HLA-DPB1 (11760878_x_at) / Fold change /veh HLA-DPB1 (11760878_x_at) / RFU SPINT1 (11716480_a_at) / Fold change /veh SPINT1 (11716480_a_at) / RFU GAP43 (11754022_s_at) / Fold change /veh GAP43 (11754022_s_at) / RFU A4GNT (11735810_at) / Fold change /veh A4GNT (11735810_at) / RFU PRB3 (11715151_x_at) / Fold change /veh PRB3 (11715151_x_at) / RFU TUBB4B (11761932_at) / Fold change /veh TUBB4B (11761932_at) / RFU CAPN14 (11732068_a_at) / Fold change /veh CAPN14 (11732068_a_at) / RFU TMCC2 (11721928_a_at) / Fold change /veh TMCC2 (11721928_a_at) / RFU IRGQ (11745062_a_at) / Fold change /veh IRGQ (11745062_a_at) / RFU FAM174B (11720279_a_at) / Fold change /veh FAM174B (11720279_a_at) / RFU TMPRSS4 (11748680_a_at) / Fold change /veh TMPRSS4 (11748680_a_at) / RFU FAM212B (11763350_a_at) / Fold change /veh FAM212B (11763350_a_at) / RFU PLEKHG5 (11743358_a_at) / Fold change /veh PLEKHG5 (11743358_a_at) / RFU ZSCAN30 (11745921_a_at) / Fold change /veh ZSCAN30 (11745921_a_at) / RFU CMKLR1 (11741424_a_at) / Fold change /veh CMKLR1 (11741424_a_at) / RFU LOC101060620 /// MAPK8IP1 (11723275_at) / Fold change /veh LOC101060620 /// MAPK8IP1 (11723275_at) / RFU SPTSSB (11747773_x_at) / Fold change /veh SPTSSB (11747773_x_at) / RFU PRSS12 (11739890_at) / Fold change /veh PRSS12 (11739890_at) / RFU BIN1 (11741810_x_at) / Fold change /veh BIN1 (11741810_x_at) / RFU WNT11 (11732464_a_at) / Fold change /veh WNT11 (11732464_a_at) / RFU C10orf10 (11716521_a_at) / Fold change /veh C10orf10 (11716521_a_at) / RFU C5orf56 (11738089_at) / Fold change /veh C5orf56 (11738089_at) / RFU CYB561 (11721691_x_at) / Fold change /veh CYB561 (11721691_x_at) / RFU ANKRD19P (11752326_a_at) / Fold change /veh ANKRD19P (11752326_a_at) / RFU OR2T12 /// OR2T33 /// OR2T8 (11738714_s_at) / Fold change /veh OR2T12 /// OR2T33 /// OR2T8 (11738714_s_at) / RFU VCAN (11748164_a_at) / Fold change /veh VCAN (11748164_a_at) / RFU JSRP1 (11732532_at) / Fold change /veh JSRP1 (11732532_at) / RFU KRTAP10-11 (11738290_x_at) / Fold change /veh KRTAP10-11 (11738290_x_at) / RFU MYO3A (11730013_a_at) / Fold change /veh MYO3A (11730013_a_at) / RFU EBF3 (11725865_a_at) / Fold change /veh EBF3 (11725865_a_at) / RFU CAMK2N1 (11719241_x_at) / Fold change /veh CAMK2N1 (11719241_x_at) / RFU C5orf56 (11738088_a_at) / Fold change /veh C5orf56 (11738088_a_at) / RFU OLFML3 (11715873_a_at) / Fold change /veh OLFML3 (11715873_a_at) / RFU LOC100653217 /// NTM (11731650_a_at) / Fold change /veh LOC100653217 /// NTM (11731650_a_at) / RFU MAPK11 (11762145_a_at) / Fold change /veh MAPK11 (11762145_a_at) / RFU FIZ1 (11724087_x_at) / Fold change /veh FIZ1 (11724087_x_at) / RFU OASL (11726364_x_at) / Fold change /veh OASL (11726364_x_at) / RFU SOX15 (11748057_x_at) / Fold change /veh SOX15 (11748057_x_at) / RFU CD79A (11719716_a_at) / Fold change /veh CD79A (11719716_a_at) / RFU HIST1H1D (11736915_at) / Fold change /veh HIST1H1D (11736915_at) / RFU CASKIN2 (11723855_a_at) / Fold change /veh CASKIN2 (11723855_a_at) / RFU LOC730098 (11760151_x_at) / Fold change /veh LOC730098 (11760151_x_at) / RFU OR4N2 (11742367_at) / Fold change /veh OR4N2 (11742367_at) / RFU PRRT2 (11749266_a_at) / Fold change /veh PRRT2 (11749266_a_at) / RFU SNX32 (11753110_a_at) / Fold change /veh SNX32 (11753110_a_at) / RFU CDHR5 (11726645_a_at) / Fold change /veh CDHR5 (11726645_a_at) / RFU RCAN1 (11760418_a_at) / Fold change /veh RCAN1 (11760418_a_at) / RFU FAM167A (11723789_a_at) / Fold change /veh FAM167A (11723789_a_at) / RFU FAM26E (11764081_at) / Fold change /veh FAM26E (11764081_at) / RFU ISYNA1 (11749810_s_at) / Fold change /veh ISYNA1 (11749810_s_at) / RFU ACY1 (11761880_at) / Fold change /veh ACY1 (11761880_at) / RFU 11764098_at / Fold change /veh 11764098_at / RFU SAMD14 (11745864_x_at) / Fold change /veh SAMD14 (11745864_x_at) / RFU NPB (11741838_a_at) / Fold change /veh NPB (11741838_a_at) / RFU TMPRSS6 (11731388_a_at) / Fold change /veh TMPRSS6 (11731388_a_at) / RFU KRTAP10-2 (11738614_at) / Fold change /veh KRTAP10-2 (11738614_at) / RFU ARHGAP8 /// PRR5-ARHGAP8 (11727945_x_at) / Fold change /veh ARHGAP8 /// PRR5-ARHGAP8 (11727945_x_at) / RFU KRTAP5-7 /// NADSYN1 (11734609_at) / Fold change /veh KRTAP5-7 /// NADSYN1 (11734609_at) / RFU RASL12 (11751679_a_at) / Fold change /veh RASL12 (11751679_a_at) / RFU CDKN2B (11736163_a_at) / Fold change /veh CDKN2B (11736163_a_at) / RFU PRF1 (11729649_at) / Fold change /veh PRF1 (11729649_at) / RFU, ZNF638 /// ZNF638-IT1 / Fold change vs veh, ZNF638 /// ZNF638-IT1 / RFU, PANK3 / Fold change vs veh, PANK3 / RFU, SH3YL1 / Fold change vs veh, SH3YL1 / RFU, ZEB2 / Fold change vs veh, ZEB2 / RFU, NRIP1 / Fold change vs veh, NRIP1 / RFU, PTTG1IP / Fold change vs veh, PTTG1IP / RFU, CAPN2 / Fold change vs veh, CAPN2 / RFU, MED14 / Fold change vs veh, MED14 / RFU, SNORA58 / Fold change vs veh, SNORA58 / RFU, C1orf63 / Fold change vs veh, C1orf63 / RFU, LRRFIP1 / Fold change vs veh, LRRFIP1 / RFU, NDUFAF7 / Fold change vs veh, NDUFAF7 / RFU, SLC12A2 / Fold change vs veh, SLC12A2 / RFU, IBTK / Fold change vs veh, IBTK / RFU, ESF1 / Fold change vs veh, ESF1 / Fold change vs veh, TMEM50B / RFU, TAOK1 / Fold change vs veh, TAOK1 / RFU, ACBD3 / Fold change vs veh, ACBD3 / RFU, TMA16 / Fold change vs veh, TMA16 / RFU, RWDD3 / Fold change vs veh, RWDD3 / RFU, BCAT1 / Fold change vs veh, BCAT1 / RFU, EDEM3 / Fold change vs veh, EDEM3 / RFU, TMEM33 / Fold change vs veh, TMEM33 / RFU, WDR75 / Fold change vs veh, WDR75 / RFU, AHCTF1 / Fold change vs veh, AHCTF1 / RFU, TFRC / Fold change vs veh, TFRC / RFU, ZDHHC17 / Fold change vs veh, ZDHHC17 / RFU, NOM1 / Fold change vs veh, NOM1 / RFU, ARL8B / Fold change vs veh, ARL8B / RFU, ZBTB11 / Fold change vs veh, ZBTB11 / RFU, TAMM41 / Fold change vs veh, TAMM41 / RFU, KIAA1704 /// LOC100996395 / Fold change vs veh, KIAA1704 /// LOC100996395 / RFU, ING1 / Fold change vs veh, ING1 / RFU, TRMT61B / Fold change vs veh, TRMT61B / RFU, FUBP3 / Fold change vs veh, FUBP3 / RFU, TP53 / Fold change vs veh, TP53 / RFU, TNKS2 / Fold change vs veh, TNKS2 / RFU, ZFP14 / Fold change vs veh, ZFP14 / RFU, ACTR2 / Fold change vs veh, ACTR2 / RFU, PPP3R1 / Fold change vs veh, PPP3R1 / RFU, PIK3R1 / Fold change vs veh, PIK3R1 / RFU, HNRNPA1 / Fold change vs veh, HNRNPA1 / RFU, RNF170 / Fold change vs veh, RNF170 / RFU, ZNF28 / Fold change vs veh, ZNF28 / RFU, RNGTT / Fold change vs veh, RNGTT / RFU, OGT / Fold change vs veh, OGT / RFU, BRD1 / Fold change vs veh, BRD1 / RFU, MARS / Fold change vs veh, MARS / RFU, ZNF655 / Fold change vs veh, ZNF655 / RFU, FAHD1 / Fold change vs veh, FAHD1 / RFU, BDP1 / Fold change vs veh, BDP1 / RFU, LRRCC1 / Fold change vs veh, LRRCC1 / RFU, ARID1A / Fold change vs veh, ARID1A / RFU, ZNF146 / Fold change vs veh, ZNF146 / RFU, ZNF330 / Fold change vs veh, ZNF330 / RFU, GPN3 / Fold change vs veh, GPN3 / RFU, C9orf123 / Fold change vs veh, C9orf123 / RFU, N4BP2L2 / Fold change vs veh, N4BP2L2 / RFU, ARFIP1 / Fold change vs veh, ARFIP1 / RFU, FAM179B / Fold change vs veh, FAM179B / RFU, BCL10 / Fold change vs veh, BCL10 / RFU, UHRF1BP1L / Fold change vs veh, UHRF1BP1L / RFU, BET1 / Fold change vs veh, BET1 / RFU, CNOT2 / Fold change vs veh, CNOT2 / RFU, ZNF268 / Fold change vs veh, ZNF268 / Fold change vs veh, ZNF507 / RFU, DGCR2 / Fold change vs veh, DGCR2 / RFU, WDSUB1 / Fold change vs veh, WDSUB1 / Fold change vs veh, HSP90B1 /// MIR3652 / RFU, ADSS / Fold change vs veh, ADSS / RFU, GK / Fold change vs veh, GK / RFU, ZNF148 / Fold change vs veh, ZNF148 / RFU, TAF9 / Fold change vs veh, TAF9 / RFU, SLC1A5 / Fold change vs veh, SLC1A5 / RFU, SLMO2 / Fold change vs veh, SLMO2 / RFU, ABCC4 / Fold change vs veh, ABCC4 / RFU, LOC101060439 /// RAP1B / Fold change vs veh, LOC101060439 /// RAP1B / RFU, RFX7 / Fold change vs veh, RFX7 / RFU, GTPBP10 / Fold change vs veh, GTPBP10 / RFU, CNEP1R1 / Fold change vs veh, CNEP1R1 / RFU, BIVM-ERCC5 /// ERCC5 / Fold change vs veh, BIVM-ERCC5 /// ERCC5 / RFU, ILF3 / Fold change vs veh, ILF3 / RFU 11762660_at / Fold change /veh 11762660_at / RFU VCAN (11757783_s_at) / Fold change /veh VCAN (11757783_s_at) / RFU DDX43 (11728927_at) / Fold change /veh DDX43 (11728927_at) / RFU KRT8 (11758188_x_at) / Fold change /veh KRT8 (11758188_x_at) / RFU NKD1 (11759106_at) / Fold change /veh NKD1 (11759106_at) / RFU SRD5A1 (11742802_a_at) / Fold change /veh SRD5A1 (11742802_a_at) / RFU TPSAB1 /// TPSB2 (11721975_s_at) / Fold change /veh TPSAB1 /// TPSB2 (11721975_s_at) / RFU GSTM3 (11746129_a_at) / Fold change /veh GSTM3 (11746129_a_at) / RFU IL23R (11737362_x_at) / Fold change /veh IL23R (11737362_x_at) / RFU TMEM51 (11727254_a_at) / Fold change /veh TMEM51 (11727254_a_at) / RFU PIWIL2 (11732686_x_at) / Fold change /veh PIWIL2 (11732686_x_at) / RFU ORM1 (11744905_x_at) / Fold change /veh ORM1 (11744905_x_at) / RFU CCDC152 (11743942_at) / Fold change /veh CCDC152 (11743942_at) / RFU ECM1 (11717891_a_at) / Fold change /veh ECM1 (11717891_a_at) / RFU IL23R (11748794_a_at) / Fold change /veh IL23R (11748794_a_at) / RFU TNFAIP8L3 (11732012_x_at) / Fold change /veh TNFAIP8L3 (11732012_x_at) / RFU MBOAT4 (11741988_at) / Fold change /veh MBOAT4 (11741988_at) / RFU 11764193_at / Fold change /veh 11764193_at / RFU TMEM53 (11763286_at) / Fold change /veh TMEM53 (11763286_at) / RFU MAGEB2 (11727129_at) / Fold change /veh MAGEB2 (11727129_at) / RFU TMEM200A (11744735_a_at) / Fold change /veh TMEM200A (11744735_a_at) / RFU CCDC152 (11751479_a_at) / Fold change /veh CCDC152 (11751479_a_at) / RFU FAM211A (11726209_a_at) / Fold change /veh FAM211A (11726209_a_at) / RFU RGS16 (11746705_a_at) / Fold change /veh RGS16 (11746705_a_at) / RFU VCAN (11755009_s_at) / Fold change /veh VCAN (11755009_s_at) / RFU RHOB (11743442_s_at) / Fold change /veh RHOB (11743442_s_at) / RFU RGS16 (11720943_a_at) / Fold change /veh RGS16 (11720943_a_at) / RFU RGS16 (11720944_at) / Fold change /veh RGS16 (11720944_at) / RFU, VPS4B / Fold change vs veh, VPS4B / RFU, CREB1 / Fold change vs veh, CREB1 / RFU, DNAJC13 / Fold change vs veh, DNAJC13 / RFU, GNAQ / Fold change vs veh, GNAQ / RFU, CDK5R1 / Fold change vs veh, CDK5R1 / RFU, ZRANB3 / Fold change vs veh, ZRANB3 / RFU, CUL4A / Fold change vs veh, CUL4A / RFU, CCNY / Fold change vs veh, CCNY / RFU, UFL1 / Fold change vs veh, UFL1 / RFU, COG3 / Fold change vs veh, COG3 / RFU, DIAPH2 / Fold change vs veh, DIAPH2 / RFU, SKA2 / Fold change vs veh, SKA2 / RFU, AFF3 / Fold change vs veh, AFF3 / RFU, LMF1 / Fold change vs veh, LMF1 / RFU, IPO11 / Fold change vs veh, IPO11 / RFU, DFFB / Fold change vs veh, DFFB / RFU, FOXP1 / Fold change vs veh, FOXP1 / RFU, CARD8 / Fold change vs veh, CARD8 / RFU, STRN3 / Fold change vs veh, STRN3 / RFU, ADK / Fold change vs veh, ADK / RFU, RASSF2 / Fold change vs veh, RASSF2 / RFU, WIPF1 / Fold change vs veh, WIPF1 / RFU, LARP1B / Fold change vs veh, LARP1B / RFU, RASA1 / Fold change vs veh, RASA1 / RFU, RB1 / Fold change vs veh, RB1 / RFU, PPFIA1 / Fold change vs veh, PPFIA1 / RFU, MAT2A / Fold change vs veh, MAT2A / RFU, CCT5 / Fold change vs veh, CCT5 / RFU, WDR92 / Fold change vs veh, WDR92 / RFU, CUX1 / Fold change vs veh, CUX1 / RFU, TTC7A / Fold change vs veh, TTC7A / RFU, TMEM135 / Fold change vs veh, TMEM135 / RFU, DEPTOR / Fold change vs veh, DEPTOR / RFU, CPM / Fold change vs veh, CPM / RFU, DNAJB6 / Fold change vs veh, DNAJB6 / RFU, CACNA2D3 / Fold change vs veh, CACNA2D3 / RFU, DTX4 / Fold change vs veh, DTX4 / RFU, TFCP2 / Fold change vs veh, TFCP2 / RFU, GMCL1 /// GMCL1P1 / Fold change vs veh, GMCL1 /// GMCL1P1 / RFU, AEBP2 / Fold change vs veh, AEBP2 / RFU, SNHG1 /// SNORD22 /// SNORD25 /// SNORD26 /// SNORD27 /// SNORD28 /// SNORD29 /// SNORD31 / Fold change vs veh, SNHG1 /// SNORD22 /// SNORD25 /// SNORD26 /// SNORD27 /// SNORD28 /// SNORD29 /// SNORD31 / Fold change (Aza/veh), C12orf56 (ProbeSet 11735607_a_at) / Fold change (ACY-1035/veh), C12orf56 (ProbeSet 11735607_a_at) / Fold change (Aza/veh), FGFR1OP (ProbeSet 11751329_s_at) / Fold change (ACY-1035/veh), FGFR1OP (ProbeSet 11751329_s_at) / Fold change (Aza/veh), VPS36 (ProbeSet 11739960_a_at) / Fold change (ACY-1035/veh), VPS36 (ProbeSet 11739960_a_at) / RFU SYPL1 (11715823_x_at) / Fold change /veh SYPL1 (11715823_x_at) / RFU IGFBP7 (11715501_s_at) / Fold change /veh IGFBP7 (11715501_s_at) / RFU REEP3 (11722064_at) / Fold change /veh REEP3 (11722064_at) / RFU IGLL1 (11728026_x_at) / Fold change /veh IGLL1 (11728026_x_at): dose or concentration left out as unconfirmed
Conditions: MV-4-11 cells, 48 hours

For Nc1ccc(-c2cccs2)cc1NC(=O)c1ccc2c(c1)cc(C1CC1)n2CCN1CCOCC1 [ACY-1035], the “Fold change /veh KIR2DL2 /// KIR2DL4 /// KIR2DL5A /// KIR2DL5B /// KIR2DS1 /// KIR2DS2 /// KIR2DS3 /// KIR2DS4 /// KIR3DL3 /// KIR3DL3 /// KIR3DS1 (11738374_at)” value was 0.96.

From paper PMC5218480 (PLoS ONE, 2017)
